Measured values as given in patent US6358981B1, “Sulphonamide derivatives” (Eli Lilly and Company, priority 1998, dated 2002).

Experiments:
human GluR4B receptor = target: T1, human GluR4B receptor (Homo sapiens, UniProt P48058); assay: potentiation of agonist-induced excitability of human GluR4B receptor expressed in HEK 293 cells; format: cell-based
T1 construct: expressed in transfected cells
Description: The ability of compounds of formula I to potentiate glutamate receptor-mediated response may be determined using fluorescent calcium indicator dyes (Molecular Probes, Eugene, Oreg., Fluo-3) and by measuring glutamate-evoked efflux of calcium into GluR4 transfected HEK293 cells, as described in more detail below.
In one test, 96 well plates containing confluent monolayers of HEK cells stably expressing human GluR4B (obtained as described in European Patent Application Publication Number EP-A1-583917) are prepared. The tissue culture medium in the wells is then discarded, and the wells are each washed once with 200 μl of buffer (glucose, 10 mM, sodium chloride, 138 mM, magnesium chloride, 1 mM, potassium chloride, 5 mM, calcium chloride, 5 mM, N-[2-hydroxyethyl]-piperazine-N-[2-ethanesulfonic acid], 10 mM, to pH 7.1 to 7.3). […]
Each test is then performed as follows. […] A second fluorescent reading is taken after 5 minutes incubation. 15 μl of 400 μM glutamate solution is then added to each well (final glutamate concentration 100 μM), and a third reading is taken. The activities of test compounds and cyclothiazide solutions are determined by subtracting the second from the third reading (fluorescence due to addition of glutamate in the presence or absence of test compound or cyclothiazide) and are expressed relative to enhance fluorescence produced by 100 μM cyclothiazide.

T1 sequence (P48058 21-902): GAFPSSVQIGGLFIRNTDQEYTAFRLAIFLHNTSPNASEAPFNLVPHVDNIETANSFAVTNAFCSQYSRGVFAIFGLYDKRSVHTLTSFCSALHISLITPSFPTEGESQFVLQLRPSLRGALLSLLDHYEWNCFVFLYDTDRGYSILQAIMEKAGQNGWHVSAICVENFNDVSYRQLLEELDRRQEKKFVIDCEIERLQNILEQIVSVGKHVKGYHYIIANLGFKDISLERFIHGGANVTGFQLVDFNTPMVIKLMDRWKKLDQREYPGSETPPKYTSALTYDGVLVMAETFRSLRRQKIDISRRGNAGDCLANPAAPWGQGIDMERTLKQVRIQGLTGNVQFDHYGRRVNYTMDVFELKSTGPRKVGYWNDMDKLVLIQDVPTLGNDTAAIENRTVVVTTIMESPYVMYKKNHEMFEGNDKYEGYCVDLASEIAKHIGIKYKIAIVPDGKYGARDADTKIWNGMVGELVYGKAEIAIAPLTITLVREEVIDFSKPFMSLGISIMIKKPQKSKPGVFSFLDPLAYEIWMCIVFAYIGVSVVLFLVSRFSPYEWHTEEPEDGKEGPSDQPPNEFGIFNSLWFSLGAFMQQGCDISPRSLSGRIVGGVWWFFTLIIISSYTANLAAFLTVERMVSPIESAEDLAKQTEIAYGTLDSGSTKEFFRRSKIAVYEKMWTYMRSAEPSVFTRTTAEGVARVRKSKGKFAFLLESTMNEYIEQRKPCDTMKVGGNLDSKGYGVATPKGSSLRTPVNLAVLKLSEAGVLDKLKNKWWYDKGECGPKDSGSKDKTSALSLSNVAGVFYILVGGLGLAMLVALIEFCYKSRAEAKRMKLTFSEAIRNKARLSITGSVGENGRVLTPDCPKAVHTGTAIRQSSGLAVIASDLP

CC(C)S(=O)(=O)NCC(F)c1ccc(-c2ccccc2)cc1 (centres unmarked)
melting point: 89 to 91 °C

NS(=O)(=O)c1cc2c(cc1Cl)NC(C1CC3C=CC1C3)NS2(=O)=O (centres unmarked) [cyclothiazide]
potentiation of agonist-induced excitability (human GluR4B receptor): potentiate agonist-induced excitability
